Cytotoxicity data for 97 compounds are collected here from ChEMBL document CHEMBL3507680, “University of Dundee, Gates Library screen for HepG2 cell viability”.

The data set is described as follows: Human HepG2 cell viability assay in 384 well format. Format: toxicity, cell-based. The arrangement: dose 125 nL, time 70.5 hour; concentration not given beside the values. As to conditions: HepG2 cells, read-out: Inhibition.
As to `COc1ccc(CC(C)Nc2cccc(SC)c2)cc1` (configuration not stated), the cytotoxicity at 70.5 h is -5.87%. `CN(Cc1cc(-c2cccnc2)no1)C(=O)C1CCCN1S(C)(=O)=O` (configuration not stated): the cytotoxicity at 70.5 h was -8.25%. For the compound `CCn1ccnc1CN(C)c1cc(N(C)C)ncn1`, the cytotoxicity at 70.5 h was found to be 0.0154%. For the compound `O=C(N[C@@H]1c2ccccc2C[C@@H]1O)C1CCN(Cc2ccco2)CC1`, the cytotoxicity at 70.5 h was -0.979%. The same measure for `Fc1ccc(C(CNc2ccncn2)N2CCCC2)cc1` (configuration not stated): 12.7%; for `Cc1ccccc1NC(=O)CNC(C)COc1ccccc1` (configuration not stated): -9.44%. In the case of `CCOC(=O)CCNC(=O)N1CCCC(CNC(=O)c2ccco2)C1` (configuration not stated), the cytotoxicity at 70.5 h turned out to be 3.18%. The same measure for `Cc1cnc(N2CCCC(c3ccccc3)C2)nc1-c1ccnn1C` (configuration not stated): -8.04%. Consider `CC1(c2ccccc2)CCCN(Cc2cncn2C2CC2)C1` (configuration not stated), for which the cytotoxicity at 70.5 h was -8.21%. As for `CSC(C)CCN(Cc1ccccn1)Cc1sccc1C` (configuration not stated), the cytotoxicity at 70.5 h was -4.96%. As to `CSc1ccccc1CN1C[C@H]2C(=O)N(CC3CC3)C[C@@]2(C(=O)O)C1`, the cytotoxicity at 70.5 h is -0.998%. The same measure for `CCCN(Cc1nc(-c2ccc(F)c(OC)c2)oc1C)CC1CCCO1` (configuration not stated): -5.99%; for `CCNc1ncc(CN2C[C@H](C3CC3)[C@@H](N)C2)cn1`: -1.95%; for `O=C(c1ccncc1Cl)N1CCN(Cc2ccco2)C(CCO)C1` (configuration not stated): 16.2%.

For the compound `O=C(O)C1(Cc2ccccc2Cl)CCN(c2ncccn2)CC1`, the cytotoxicity at 70.5 h was -10.5%.

Turning to `Cc1cc(N2CCCC(O)CC2)n2nc(C)c(C)c2n1` (configuration not stated), the cytotoxicity at 70.5 h amounted to 1.18%. The same measure for `COc1ccc(-c2cccc(-c3ccn(CCCN(C)C)n3)c2)nn1`: -13.7%; for `COCCN(C)C[C@@H]1CN(C(=O)c2cccc(C#N)c2)C[C@@H]1CO`: 12.6%; for `Cc1nc(N)ncc1C(=O)N1CCCC(CCc2ccc(F)cc2)C1` (configuration not stated): -18.8%. Regarding `CCc1ccc(CN(C)Cc2nc(-c3cnccn3)no2)nc1`, the cytotoxicity at 70.5 h was -13.4%. For the compound `Cc1n[nH]c(C)c1CCCNCc1cn(CCC(N)=O)c2ccccc12`, the cytotoxicity at 70.5 h was -3.31%. On to `Cc1nnc(SCCCNC(=O)Cc2ccc3c(c2)OCO3)s1`, for which the cytotoxicity at 70.5 h was found to be 11.5%. With `c1ccc2c(c1)CC(N1CCCC(NCc3ccc4nonc4c3)C1)C2` (configuration not stated), the cytotoxicity at 70.5 h was -17.7%. Consider `CC1(C)[C@H]2CC=C(CN3CCCn4nc(C(=O)O)cc4C3)[C@@H]1C2`, for which the cytotoxicity at 70.5 h is -19.9%. In the case of `O=C(CCC(=O)N1CCNC(=O)C1c1cccc(F)c1)NC1CCCC1` (configuration not stated), the cytotoxicity at 70.5 h is -6.2%. On to `CCCn1ncc(CN(CCN(C)C)Cc2ccsc2)c1C`, for which the cytotoxicity at 70.5 h came out at 31.8%.

As to `CC(=O)N[C@@H]1CN(c2nc(CO)cs2)C[C@H]1c1ccc(C)o1`, the cytotoxicity at 70.5 h was -12.8%. Turning to `CC(C)=CCN1C[C@H]2CC[C@@H]1CN(C(=O)CSc1ccncc1)C2`, the cytotoxicity at 70.5 h was -0.143%.

With `c1ccc(C2CCN(c3ncnc4c3CCNC4)CC2)cc1`, the cytotoxicity at 70.5 h is -4.79%. For `Cc1cc(C(F)(F)F)cc(N2CCN(Cc3ccccc3)CC(O)C2)n1` (configuration not stated), the cytotoxicity at 70.5 h turned out to be 3.5%.

For the compound `CC(C)(C)c1oc(C(N)=O)cc1CN1CCCCC1CN1CCOCC1` (configuration not stated), the cytotoxicity at 70.5 h turned out to be 39.9%. In the case of `COc1ccccc1[C@@H]1CN(Cc2c(C)noc2C)C[C@H]1C(=O)O`, the cytotoxicity at 70.5 h is -8.62%. For the compound `COCCC1(C(=O)O)CCCN(C(=O)c2cc(Cl)ccc2F)C1` (configuration not stated), the cytotoxicity at 70.5 h was -5.3%.

`CC(C)S(=O)(=O)N1CCCC(c2nnc(Cn3ccnc3)n2C)C1` (configuration not stated): the cytotoxicity at 70.5 h is -7.74%. Take `CN(C)CC1(O)CCCN(C(=O)CCn2cc(Cl)cn2)C1` (configuration not stated): the cytotoxicity at 70.5 h stood at 26.8%. In the case of `CC(c1cccs1)N(C)Cc1cnc(-c2ccccn2)nc1` (configuration not stated), the cytotoxicity at 70.5 h was 3.52%. Take `CCCc1nc(CN(CC)C(=O)c2ccc(S(C)(=O)=O)cc2)no1`: the cytotoxicity at 70.5 h was -8.4%. To `Cc1nc(CCN(C)C(=O)CN2C(=O)OC[C@@H]2c2ccccc2)no1` belongs -4.02%; to `Fc1ccc(-n2cccn2)c(CN2CCCCC2CCn2ccnc2)c1` (configuration not stated), 1.83%; to `COc1nccnc1N1C[C@@H]2CC[C@H](C1)N(CC=C(C)C)C2=O`, -20.8%. In the case of `CCC(C(=O)NC1(C(N)=O)CCCC1)n1cccn1` (configuration not stated), the cytotoxicity at 70.5 h is -13.8%. `CCN(Cc1cnc(-c2ccccn2)nc1)C1CCS(=O)(=O)C1` (configuration not stated): the cytotoxicity at 70.5 h is 5%. Take `COCCNCC1(O)CCCN(Cc2ccc(F)c(F)c2)C1=O` (configuration not stated): the cytotoxicity at 70.5 h was -2.23%. For `Cn1ccnc1-c1ccc(NCC2COc3ccccc3O2)nn1` (configuration not stated), the cytotoxicity at 70.5 h was 1.13%. Turning to `COC[C@]1(O)CCN(C2CCN(c3ccc(Cl)cc3)CC2)CC1(C)C`, the cytotoxicity at 70.5 h is 22.5%. Turning to `CCN1CC(c2ccccc2)CC2(CCN(Cc3ncc[nH]3)CC2)C1` (configuration not stated), the cytotoxicity at 70.5 h was -9.77%.

Regarding `CC(=O)N1CCN(Cc2c(C)ccc3ccccc23)CC(O)C1` (configuration not stated), the cytotoxicity at 70.5 h is -6.49%.

Turning to `CCOc1ccccc1C(C(=O)O)N(C)Cc1nnc(C)o1` (configuration not stated), the cytotoxicity at 70.5 h is -2.69%. In the case of `Cc1cnc(N2CCCC(c3ccccc3)C2)nc1-c1ncnn1C` (configuration not stated), the cytotoxicity at 70.5 h is -9.97%. The same measure for `O=C(CCN1CCOC(C(F)(F)F)C1)NCc1ccc(Cl)cc1` (configuration not stated): -0.312%; for `COc1nc(C)c(C(=O)N2CCC(C(O)Cc3ccccc3)CC2)s1` (configuration not stated): -11.5%. The same measure for `N#Cc1ccccc1C(=O)N1C[C@@H](CN2CCCCC2)[C@@H](CO)C1`: -5.21%; for `CC(=O)NCCNC(=O)c1cnc2c(c1)nc(-c1ccccc1Cl)n2C`: -6%. The same measure for `Cc1c[nH]c(CN2CCN(C)C3(CCC(=O)N(CC4CC4)CC3)C2)n1` (configuration not stated): 19.9%. On to `Cc1ccc(OC2(C(=O)NC(C)Cc3ccncc3)CCNCC2)cc1` (configuration not stated), for which the cytotoxicity at 70.5 h was -6.8%. To `CN(CCc1ccccn1)C(=O)CCC1CCCN(S(C)(=O)=O)C1` (configuration not stated) belongs 3.47%; to `Cc1nc(O)cc(C2CCN(C(=O)c3[nH]nc4c3CC(C)CC4)CC2)n1` (configuration not stated), -11%. With `COC(=O)CNc1ccc(-c2nc(Cc3ccc(OC)cc3)no2)cn1`, the cytotoxicity at 70.5 h was -10.8%. Turning to `COC(=O)c1cc(CN2CCN(c3ncccc3C)CC2)ccc1O`, the cytotoxicity at 70.5 h is 39.9%. As to `Cc1cccc(-n2nc(CC(C)C)nc2CCC(=O)N(C)C)c1`, the cytotoxicity at 70.5 h was 0.846%.

As to `CC(C)n1ccnc1C1CCCN(Cc2ccc(F)c(F)c2)C1` (configuration not stated), the cytotoxicity at 70.5 h came out at 38%. The same measure for `CCc1nccn1CCCNC(=O)c1cnn(-c2ccccc2OC)c1`: -5.05%; for `O=C1CCC2(CCOC2)CN1CCCOc1cccnc1` (configuration not stated): 0.321%. Consider `CCNC(=O)C1CCN(c2cc(-c3ccccc3)nc3ccnn23)C1` (configuration not stated), for which the cytotoxicity at 70.5 h was -0.497%.

With `CSc1nccc(NCC2CNCCOC2)n1` (configuration not stated), the cytotoxicity at 70.5 h is -11.3%. To `CSCCC(=O)N1CCC(c2nccn2Cc2cscn2)CC1` belongs -5.4%; to `CCN1CCN(C2(C(=O)NC3CCCC3)Cc3ccccc3C2)CC1`, -3.96%. The same measure for `CC(C)c1cc(C(=O)N2CCN(CC3CC3)[C@@H]3CS(=O)(=O)C[C@@H]32)no1`: -3.21%; for `O=C(c1cc(Cn2ccc3ccccc32)[nH]n1)N1CCCCC1CO` (configuration not stated): 10.4%.

Take `CC(C)N1CCOC(CC(=O)N2CCCN(c3ccc(F)cc3)CC2)C1` (configuration not stated): the cytotoxicity at 70.5 h was -3.4%. For `Cc1cc(C(=O)N2CCC(c3nnc(Cn4ccnc4)n3C)CC2)cs1`, the cytotoxicity at 70.5 h is -9.51%. As for `CN1C(=O)C2(CCN(c3ncccc3C(=O)O)CC2)c2ccccc21`, the cytotoxicity at 70.5 h is -8.18%. For the compound `Cc1cccnc1CN1CCN(C(=O)c2cnn(C(C)C)c2)CC1`, the cytotoxicity at 70.5 h was found to be 15.6%. The same measure for `CCc1cnc(N)nc1NC(C)c1ccc(C)c(C)c1` (configuration not stated): -0.902%; for `CN(C)C(=O)CN1C[C@@H]2CC[C@H](C1)N(Cc1c(Cl)cncc1Cl)C2`: -9.62%; for `CC(=O)c1ccc(N2CCCC(CO)(Cc3ccccc3C)C2)nc1` (configuration not stated): -3.1%. `CCC(C)Nc1ccc(-c2nc(-c3cccc(OC)c3OC)no2)cn1` (configuration not stated): the cytotoxicity at 70.5 h turned out to be 13.1%. On to `CC(O)CN1CCc2onc(-c3ccccc3F)c2C1` (configuration not stated), for which the cytotoxicity at 70.5 h was -22.3%.

Take `CS(=O)(=O)CCc1ncnn1-c1ccc(F)c(Cl)c1`: the cytotoxicity at 70.5 h was -2.51%. As to `Cc1ccc(CN2CCNC(=O)C2CC(=O)N2CCSCC2)o1` (configuration not stated), the cytotoxicity at 70.5 h is 2.5%. With `Cn1c(-c2ccc(F)cc2)cn2cc(C(=O)N3CC[C@@H](O)C3)nc2c1=O`, the cytotoxicity at 70.5 h was -10.1%. Consider `NCc1cn(CC2CCCN(C(=O)NCc3ccc(Cl)cc3)C2)nn1` (configuration not stated), for which the cytotoxicity at 70.5 h stood at 2.71%. As for `CN(C)CCCn1ccc(-c2cccc(-c3ccccn3)c2)n1`, the cytotoxicity at 70.5 h came to 15.8%.

As for `CC[C@@H](CO)NC(=O)c1coc(COc2ccc3sc(C)nc3c2)n1`, the cytotoxicity at 70.5 h was -12.1%. Take `COc1cc(NC2CCS(=O)(=O)CC2)ncn1`: the cytotoxicity at 70.5 h is -16.4%. In the case of `Nc1cc(C(=O)NCC2CCN(Cc3ccncc3F)C2)ccn1` (configuration not stated), the cytotoxicity at 70.5 h is 20.9%.

Consider `COCCC1(C(=O)O)CCCN(C(=O)c2cnc3c(c2)CCCC3)C1` (configuration not stated), for which the cytotoxicity at 70.5 h was -14.8%.

On to `CCn1nc(C)c(CN(CCOC)Cc2ccccn2)c1C`, for which the cytotoxicity at 70.5 h is -6.94%.

On to `NC(=O)C1CCN(CC(=O)N(Cc2ccccc2)Cc2nccs2)CC1`, for which the cytotoxicity at 70.5 h was -7.45%. `Cc1noc(CN(C)c2nc(-c3ccco3)nc3c2CCN(C)CC3)n1`: the cytotoxicity at 70.5 h is -12.8%.

For `CSc1ncccc1C(=O)N(C)C(C)Cc1ccccn1` (configuration not stated), the cytotoxicity at 70.5 h was -18.1%. Regarding `O=C(NCCSc1ccccc1)[C@H]1CNC[C@H](C(=O)N2CCOCC2)C1`, the cytotoxicity at 70.5 h was -6.2%. `Cc1nccnc1N1CCC(Cc2ccccc2Cl)(C(=O)O)CC1`: the cytotoxicity at 70.5 h was -11.4%.

With `O=C(c1ccc2ncsc2c1)N1CCC(C(=O)O)(n2cccn2)CC1`, the cytotoxicity at 70.5 h was -8.58%. The same measure for `CC(C)c1noc(CCNC(=O)C2COc3ccccc3C2)n1` (configuration not stated): 13.6%; for `COCCN1CCc2onc(C(c3ccccc3)c3ccccc3)c2C1`: -8.42%; for `O=C1CCCc2occ(C(=O)N3CCCC(O)(CO)C3)c21` (configuration not stated): 31%.
